Test results reported in PMC5437664, “Inhibition of O-GlcNAcase leads to elevation of O-GlcNAc tau and reduction of tauopathy and cerebrospinal fluid tau in rTg4510 mice” (Molecular Neurodegeneration, 2017).

Biological target: O-GlcNAcase (OGA) (Mus musculus, UniProt Q9EQQ9)
Assay: biochemical

Chain of O-GlcNAcase (OGA) (Q9EQQ9 whole entry): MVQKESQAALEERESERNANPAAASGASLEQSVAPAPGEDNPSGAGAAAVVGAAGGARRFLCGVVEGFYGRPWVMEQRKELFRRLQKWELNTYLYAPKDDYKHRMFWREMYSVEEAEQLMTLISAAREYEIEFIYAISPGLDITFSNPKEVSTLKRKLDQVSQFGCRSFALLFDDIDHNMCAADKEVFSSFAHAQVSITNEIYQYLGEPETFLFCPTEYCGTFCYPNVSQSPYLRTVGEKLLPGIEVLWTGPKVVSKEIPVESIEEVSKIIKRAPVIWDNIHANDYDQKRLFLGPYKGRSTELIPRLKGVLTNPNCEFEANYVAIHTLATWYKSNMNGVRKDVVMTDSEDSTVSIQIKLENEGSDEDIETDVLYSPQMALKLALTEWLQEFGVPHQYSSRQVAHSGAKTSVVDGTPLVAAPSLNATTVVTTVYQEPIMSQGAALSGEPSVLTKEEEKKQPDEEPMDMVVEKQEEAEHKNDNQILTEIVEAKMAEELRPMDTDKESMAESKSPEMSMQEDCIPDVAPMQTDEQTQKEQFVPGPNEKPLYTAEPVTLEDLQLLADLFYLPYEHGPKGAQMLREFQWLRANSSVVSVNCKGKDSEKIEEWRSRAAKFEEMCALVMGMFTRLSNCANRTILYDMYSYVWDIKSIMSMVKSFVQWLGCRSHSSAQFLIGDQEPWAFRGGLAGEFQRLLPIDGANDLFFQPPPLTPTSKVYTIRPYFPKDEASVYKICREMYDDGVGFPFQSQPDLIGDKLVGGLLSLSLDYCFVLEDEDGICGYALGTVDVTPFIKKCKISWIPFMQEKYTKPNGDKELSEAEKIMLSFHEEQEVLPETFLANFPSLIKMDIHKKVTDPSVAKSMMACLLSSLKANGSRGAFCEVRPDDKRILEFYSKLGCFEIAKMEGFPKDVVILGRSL

Kd: 1.7 nM
SMILES: CCNC1=N[C@@H]2[C@@H](O)[C@H](O)[C@@H](CO)O[C@@H]2S1 [Thiamet G]
